Data as given in ChEMBL document CHEMBL1201862, “PubChem BioAssay data set” (2004).
Activity calls are given as the source filed them.

Key:
[1] = target: Peroxisome proliferator-activated receptor gamma/Nuclear receptor coactivator 2 (Homo sapiens, UniProt P37231); type: functional;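 also: agonist potency for raising coactivator recruitment to the receptor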
[2] = target: Peroxisome proliferator-activated receptor gamma/Nuclear receptor coactivator 1 (Homo sapiens, UniProt P37231); type: functional;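 also: agonist potency as compounds enhance coactivator SRC-1 recruitment to PPARgamma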
[3] = target: Peroxisome proliferator-activated receptor gamma/Nuclear receptor coactivator 3 (Homo sapiens, UniProt P37231); type: functional;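 also: agonist potency for raising coactivator recruitment to the receptor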
Beta-galactosidase = Beta-galactosidase (Escherichia coli, UniProt Q8VNN2); assay: PubChem AID 485352; type: functional
[4] = M. tuberculosis H37Rv growth inhibitors, H37Rv strain (AID 1626); type: functional
[5] = target: T1, Type-1 angiotensin II receptor (Homo sapiens, UniProt P30556); assay: antagonism of angiotensin II type 1 receptor – cell-based, uHTS hits, selectivity assay for APJ receptor antagonist project, dose response (AID 463214); type: functional;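 also: antagonist potency against angiotensin II stimulated AT1 response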
T1 sequence (P30556 whole entry): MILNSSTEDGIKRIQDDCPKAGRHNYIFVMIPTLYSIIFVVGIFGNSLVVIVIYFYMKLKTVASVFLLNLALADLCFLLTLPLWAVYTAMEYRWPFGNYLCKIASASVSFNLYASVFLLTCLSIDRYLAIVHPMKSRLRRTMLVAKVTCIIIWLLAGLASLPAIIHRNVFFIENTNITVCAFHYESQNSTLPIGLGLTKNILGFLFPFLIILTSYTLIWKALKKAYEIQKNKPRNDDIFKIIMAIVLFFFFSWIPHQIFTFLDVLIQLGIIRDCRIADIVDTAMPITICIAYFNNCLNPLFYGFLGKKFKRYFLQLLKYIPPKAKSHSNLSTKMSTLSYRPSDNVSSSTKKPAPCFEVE

[6] = target: DNA dC->dU-editing enzyme APOBEC-3A (Homo sapiens, UniProt P31941); assay: A3A deaminase inhibition for selectivity – biochemical, dose response (AID 504722); type: functional
[7] = target: DNA dC->dU-editing enzyme APOBEC-3G (Homo sapiens, UniProt Q9HC16); assay: Dose Response confirmation of small molecule APOBEC3G DNA Deaminase Inhibitors via a fluorescence-based single-stranded DNA deaminase assay. [Related pubchem assays (depositor defined):AID493012, AID493028]; type: functional
[8] = target: T2, Rac GTPase-activating protein 1 (Homo sapiens, UniProt Q9H0H5); assay: blockers of MgcRacGAP-driven Rac1 GTP hydrolysis – biochemical, ADP Hunter fluorescence, primary and confirmatory, confirmation (AID 624330); type: functional
T2 sequence (Q9H0H5 whole entry): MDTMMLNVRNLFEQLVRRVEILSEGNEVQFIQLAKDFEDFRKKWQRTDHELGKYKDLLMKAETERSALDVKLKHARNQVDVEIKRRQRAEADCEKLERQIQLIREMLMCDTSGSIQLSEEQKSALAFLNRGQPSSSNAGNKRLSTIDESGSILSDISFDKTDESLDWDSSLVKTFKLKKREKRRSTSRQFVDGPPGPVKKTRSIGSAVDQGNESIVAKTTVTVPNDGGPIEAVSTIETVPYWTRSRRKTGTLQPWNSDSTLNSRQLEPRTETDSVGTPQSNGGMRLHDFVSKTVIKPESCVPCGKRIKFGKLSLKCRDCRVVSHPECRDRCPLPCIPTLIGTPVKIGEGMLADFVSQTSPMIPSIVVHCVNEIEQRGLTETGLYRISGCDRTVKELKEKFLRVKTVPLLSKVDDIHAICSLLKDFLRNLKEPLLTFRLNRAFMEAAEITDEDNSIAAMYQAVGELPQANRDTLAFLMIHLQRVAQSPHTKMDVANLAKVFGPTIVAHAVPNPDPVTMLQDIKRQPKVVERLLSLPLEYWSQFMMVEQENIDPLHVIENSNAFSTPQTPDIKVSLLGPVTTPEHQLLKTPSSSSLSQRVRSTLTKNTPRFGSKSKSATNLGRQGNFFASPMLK

[9] = target: G-protein coupled receptor 35 (Homo sapiens, UniProt Q9HC97); assay: inhibition of zaprinast-stimulated GPR35 beta-arrestin translocation – imaging, U2OS, beta-arrestin-GFP, zaprinast agonist, primary screen (AID 2058); type: functional;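 also: antagonist potency meaning inhibition of agonist-induced arrestin redistribution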
HEK293 [10] = assay: EBV LMP1 TES2 canonical NF-kB signalling blockers – cell-based, HEK293, luciferase, cherry-pick, dose response (AID 588343); type: functional; conditions: Homo sapiens
[11] = target: Acyl-homoserine lactone acylase PvdQ (Pseudomonas aeruginosa (strain LESB58), UniProt Q9I194); assay: PvdQ acylase enzyme activity blockers – biochemical, fluorescence, plate reader and imaging, cherry-picks, dose response (AID 493231)
[12] = target: T3, RNA-binding protein pos-1 (Caenorhabditis elegans, UniProt G5EF15); assay: disruptors of C. elegans POS-1 RNA interaction – biochemical, fluorescence polarization, dose response (AID 1964);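 also: purified POS-1 fused to maltose binding protein made in E. coli; potency of compounds blocking POS-1 binding to fluorescent RNA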
T3 sequence (G5EF15 whole entry): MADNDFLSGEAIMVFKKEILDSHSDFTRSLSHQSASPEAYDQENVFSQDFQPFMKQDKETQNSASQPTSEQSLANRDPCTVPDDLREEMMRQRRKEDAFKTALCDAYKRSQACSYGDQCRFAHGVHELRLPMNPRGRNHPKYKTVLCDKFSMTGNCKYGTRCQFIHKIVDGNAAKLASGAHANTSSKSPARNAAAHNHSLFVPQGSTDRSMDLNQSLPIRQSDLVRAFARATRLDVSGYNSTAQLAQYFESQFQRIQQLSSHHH

[13] = target: T4, Zinc finger protein mex-5 (Caenorhabditis elegans, UniProt Q9XUB2); assay: potency of MEX-5 RNA-binding blockers – biochemical, C. elegans, fluorescence polarization, dose response (AID 1960)
T4 sequence (Q9XUB2 whole entry): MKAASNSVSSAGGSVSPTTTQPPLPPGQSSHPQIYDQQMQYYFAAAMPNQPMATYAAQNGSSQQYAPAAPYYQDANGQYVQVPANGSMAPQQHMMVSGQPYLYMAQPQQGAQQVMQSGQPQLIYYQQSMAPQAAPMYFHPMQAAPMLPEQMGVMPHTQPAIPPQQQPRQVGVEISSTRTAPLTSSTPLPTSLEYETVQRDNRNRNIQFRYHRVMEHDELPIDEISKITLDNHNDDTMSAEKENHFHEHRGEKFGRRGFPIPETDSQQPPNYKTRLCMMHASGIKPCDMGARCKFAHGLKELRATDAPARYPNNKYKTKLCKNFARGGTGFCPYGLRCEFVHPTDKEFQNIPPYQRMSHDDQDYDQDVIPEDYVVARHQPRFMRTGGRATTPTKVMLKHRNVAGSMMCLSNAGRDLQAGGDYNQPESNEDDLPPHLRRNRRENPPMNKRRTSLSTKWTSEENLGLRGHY

HEK293 [14] = assay: inhibition of NOD1-driven NF-kB reporter – cell-based, luminescence, uHTS, primary screen (AID 1578); type: functional; conditions: Homo sapiens
HEK293 [15] = assay: cells; type: functional, cell-based; conditions: Homo sapiens
[16] = A Cell Based Secondary Assay To Explore Cytotoxicity of Compounds that Sensitize Mycobacterium Tuberculosis to Beta-Lactam Antibiotics.; type: functional
Vero [17] = assay: mammalian cell viability reduction – secondary assay, cytotoxicity control for West Nile virus antiviral project, dose response (AID 1650); type: functional; conditions: Chlorocebus sabaeus
HEK293 [18] = assay: cells; type: functional, cell-based; conditions: Homo sapiens; remark: listed apart in the source
HEK293 [19] = assay: NOD2 signaling inhibitors in MDP-stimulated cells, cell-based, uHTS, luminescence (AID 2001); type: functional; conditions: Homo sapiens
Vero [20] = assay: cells; type: functional, cell-based; conditions: Chlorocebus sabaeus
Vero [21] = assay: cells; type: functional; conditions: Chlorocebus sabaeus

Sequence of G-protein coupled receptor 35 (Q9HC97 whole entry): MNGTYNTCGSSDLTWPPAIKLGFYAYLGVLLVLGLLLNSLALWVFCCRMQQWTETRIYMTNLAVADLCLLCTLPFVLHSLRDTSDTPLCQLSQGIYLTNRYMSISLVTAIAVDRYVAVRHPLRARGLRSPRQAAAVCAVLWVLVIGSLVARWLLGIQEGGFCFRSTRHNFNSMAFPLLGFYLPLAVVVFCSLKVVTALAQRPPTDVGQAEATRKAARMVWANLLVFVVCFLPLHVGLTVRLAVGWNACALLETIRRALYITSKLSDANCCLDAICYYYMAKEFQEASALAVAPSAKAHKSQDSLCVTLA
Sequence of Acyl-homoserine lactone acylase PvdQ (Q9I194 24-193 limits assumed): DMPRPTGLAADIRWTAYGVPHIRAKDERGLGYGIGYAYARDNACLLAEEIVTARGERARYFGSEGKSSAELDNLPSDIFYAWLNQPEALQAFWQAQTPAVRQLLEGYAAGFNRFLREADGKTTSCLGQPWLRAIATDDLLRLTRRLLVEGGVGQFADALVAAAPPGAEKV
Sequence of Acyl-homoserine lactone acylase PvdQ (Q9I194 217-762 limits assumed): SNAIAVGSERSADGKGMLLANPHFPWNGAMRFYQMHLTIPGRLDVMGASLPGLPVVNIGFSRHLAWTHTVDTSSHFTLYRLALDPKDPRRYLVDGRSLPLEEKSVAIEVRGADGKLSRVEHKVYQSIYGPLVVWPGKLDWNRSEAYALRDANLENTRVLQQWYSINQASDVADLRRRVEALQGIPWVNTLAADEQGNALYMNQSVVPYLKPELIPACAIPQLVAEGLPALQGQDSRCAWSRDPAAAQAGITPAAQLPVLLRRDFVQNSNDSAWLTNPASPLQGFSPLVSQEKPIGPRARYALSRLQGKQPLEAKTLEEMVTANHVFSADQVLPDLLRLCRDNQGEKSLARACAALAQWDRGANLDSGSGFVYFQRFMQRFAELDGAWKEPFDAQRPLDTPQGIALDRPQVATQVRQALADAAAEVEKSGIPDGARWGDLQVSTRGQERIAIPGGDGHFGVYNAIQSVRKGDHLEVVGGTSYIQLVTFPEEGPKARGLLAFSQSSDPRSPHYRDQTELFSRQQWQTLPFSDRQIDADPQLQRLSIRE
Sequence of DNA dC->dU-editing enzyme APOBEC-3A (P31941 whole entry): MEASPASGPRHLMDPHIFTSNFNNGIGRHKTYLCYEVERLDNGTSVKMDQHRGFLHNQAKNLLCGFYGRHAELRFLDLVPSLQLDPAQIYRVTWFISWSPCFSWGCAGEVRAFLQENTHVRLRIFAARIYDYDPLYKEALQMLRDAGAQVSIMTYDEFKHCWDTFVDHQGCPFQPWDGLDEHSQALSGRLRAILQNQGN
Sequence of DNA dC->dU-editing enzyme APOBEC-3G (Q9HC16 whole entry): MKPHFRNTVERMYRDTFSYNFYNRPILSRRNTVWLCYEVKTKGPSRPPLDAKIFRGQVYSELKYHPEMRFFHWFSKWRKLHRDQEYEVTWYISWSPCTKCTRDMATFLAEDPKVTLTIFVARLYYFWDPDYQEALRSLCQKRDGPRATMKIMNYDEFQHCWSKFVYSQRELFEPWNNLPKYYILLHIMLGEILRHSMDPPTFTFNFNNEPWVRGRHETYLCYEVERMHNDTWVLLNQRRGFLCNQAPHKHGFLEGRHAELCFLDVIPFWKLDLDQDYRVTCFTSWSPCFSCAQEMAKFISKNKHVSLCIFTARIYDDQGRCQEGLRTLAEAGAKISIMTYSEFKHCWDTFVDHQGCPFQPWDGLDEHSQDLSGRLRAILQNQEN
Sequence of Peroxisome proliferator-activated receptor gamma/Nuclear receptor coactivator 1 (P37231 whole entry): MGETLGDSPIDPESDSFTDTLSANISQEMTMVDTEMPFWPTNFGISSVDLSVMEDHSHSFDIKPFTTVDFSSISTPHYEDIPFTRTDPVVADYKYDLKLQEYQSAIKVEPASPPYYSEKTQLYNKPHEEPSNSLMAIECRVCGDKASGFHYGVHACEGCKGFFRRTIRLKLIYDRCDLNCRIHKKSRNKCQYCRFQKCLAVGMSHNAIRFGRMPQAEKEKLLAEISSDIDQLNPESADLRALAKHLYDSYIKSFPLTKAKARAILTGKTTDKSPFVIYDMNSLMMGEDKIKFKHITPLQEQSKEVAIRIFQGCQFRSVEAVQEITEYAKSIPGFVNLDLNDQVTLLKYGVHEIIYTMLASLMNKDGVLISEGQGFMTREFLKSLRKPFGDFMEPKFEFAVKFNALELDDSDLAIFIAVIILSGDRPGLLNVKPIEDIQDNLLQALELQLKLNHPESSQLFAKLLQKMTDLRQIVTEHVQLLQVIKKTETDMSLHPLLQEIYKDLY
Sequence of Peroxisome proliferator-activated receptor gamma/Nuclear receptor coactivator 1 (Q15788 whole entry, further chain): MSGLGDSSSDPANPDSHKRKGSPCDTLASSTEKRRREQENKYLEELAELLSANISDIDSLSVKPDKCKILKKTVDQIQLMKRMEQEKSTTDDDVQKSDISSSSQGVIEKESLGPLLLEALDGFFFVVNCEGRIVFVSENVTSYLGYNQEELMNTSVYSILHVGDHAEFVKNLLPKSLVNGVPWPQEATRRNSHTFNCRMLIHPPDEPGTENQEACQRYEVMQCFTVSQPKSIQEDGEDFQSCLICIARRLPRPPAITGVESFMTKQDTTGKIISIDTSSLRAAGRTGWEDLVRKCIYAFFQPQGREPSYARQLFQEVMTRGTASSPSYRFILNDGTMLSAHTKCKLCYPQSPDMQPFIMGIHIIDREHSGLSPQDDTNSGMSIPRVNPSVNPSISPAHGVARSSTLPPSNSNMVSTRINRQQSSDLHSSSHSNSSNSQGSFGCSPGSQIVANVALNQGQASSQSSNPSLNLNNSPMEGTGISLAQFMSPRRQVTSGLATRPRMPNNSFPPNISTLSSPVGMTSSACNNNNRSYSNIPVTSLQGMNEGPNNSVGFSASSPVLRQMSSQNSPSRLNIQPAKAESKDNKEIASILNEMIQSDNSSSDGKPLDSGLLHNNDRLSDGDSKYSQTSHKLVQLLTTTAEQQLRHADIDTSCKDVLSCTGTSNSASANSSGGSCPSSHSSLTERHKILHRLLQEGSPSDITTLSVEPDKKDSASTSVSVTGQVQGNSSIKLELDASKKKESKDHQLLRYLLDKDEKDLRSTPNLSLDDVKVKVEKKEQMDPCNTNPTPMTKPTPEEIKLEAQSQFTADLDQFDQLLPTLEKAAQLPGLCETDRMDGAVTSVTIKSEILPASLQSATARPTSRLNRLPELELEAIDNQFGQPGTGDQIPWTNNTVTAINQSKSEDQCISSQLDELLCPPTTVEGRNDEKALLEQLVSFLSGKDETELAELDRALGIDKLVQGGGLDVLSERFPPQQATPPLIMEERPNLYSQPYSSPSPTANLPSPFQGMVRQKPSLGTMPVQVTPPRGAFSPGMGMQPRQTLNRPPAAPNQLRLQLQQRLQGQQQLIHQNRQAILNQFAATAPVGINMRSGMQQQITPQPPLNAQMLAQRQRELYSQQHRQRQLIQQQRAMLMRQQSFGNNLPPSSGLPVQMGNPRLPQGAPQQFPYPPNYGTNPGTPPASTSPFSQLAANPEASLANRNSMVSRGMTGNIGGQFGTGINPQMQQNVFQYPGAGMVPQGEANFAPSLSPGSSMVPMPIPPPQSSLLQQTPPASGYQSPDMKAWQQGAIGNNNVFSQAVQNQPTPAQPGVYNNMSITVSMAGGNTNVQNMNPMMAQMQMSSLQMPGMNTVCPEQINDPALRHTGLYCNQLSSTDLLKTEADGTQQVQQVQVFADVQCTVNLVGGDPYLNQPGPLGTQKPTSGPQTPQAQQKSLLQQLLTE
Sequence of Beta-galactosidase (Q8VNN2 whole entry): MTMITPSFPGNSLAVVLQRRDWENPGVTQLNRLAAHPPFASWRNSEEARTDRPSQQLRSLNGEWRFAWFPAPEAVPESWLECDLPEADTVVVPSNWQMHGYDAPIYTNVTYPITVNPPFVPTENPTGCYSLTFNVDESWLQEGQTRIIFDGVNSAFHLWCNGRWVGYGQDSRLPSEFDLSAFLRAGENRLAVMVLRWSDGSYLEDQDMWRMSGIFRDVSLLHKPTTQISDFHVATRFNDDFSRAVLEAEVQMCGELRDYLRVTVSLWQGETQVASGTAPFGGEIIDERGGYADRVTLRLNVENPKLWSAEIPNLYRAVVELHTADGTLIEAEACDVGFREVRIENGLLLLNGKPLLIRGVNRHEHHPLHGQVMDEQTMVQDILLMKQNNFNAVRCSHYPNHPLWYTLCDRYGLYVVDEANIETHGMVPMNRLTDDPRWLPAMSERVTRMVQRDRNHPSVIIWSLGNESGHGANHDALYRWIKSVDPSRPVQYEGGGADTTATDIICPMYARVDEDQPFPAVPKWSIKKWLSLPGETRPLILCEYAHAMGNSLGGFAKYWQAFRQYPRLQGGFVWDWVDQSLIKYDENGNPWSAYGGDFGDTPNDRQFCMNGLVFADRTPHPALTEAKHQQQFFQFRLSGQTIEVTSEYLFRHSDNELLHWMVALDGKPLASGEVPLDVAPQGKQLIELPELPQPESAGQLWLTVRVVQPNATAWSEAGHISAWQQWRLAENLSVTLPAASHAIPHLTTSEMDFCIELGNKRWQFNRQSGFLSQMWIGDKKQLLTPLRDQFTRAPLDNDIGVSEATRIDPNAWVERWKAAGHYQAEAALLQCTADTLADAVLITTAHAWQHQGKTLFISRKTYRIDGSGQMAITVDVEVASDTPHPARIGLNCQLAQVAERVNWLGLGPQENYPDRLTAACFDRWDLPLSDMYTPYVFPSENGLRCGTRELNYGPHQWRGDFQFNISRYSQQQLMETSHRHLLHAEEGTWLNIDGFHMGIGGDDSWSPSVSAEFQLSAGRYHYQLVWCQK

CCn1c(SCC(=O)Nc2ccc(Cl)cc2)nc2nc3c(cc2c1=O)CCCC3
EC50 [1]: > 79.4 µM (not active) | EC50 [2]: > 79.4 µM (not active) | EC50 [3]: > 79.4 µM (not active)

COc1ccc(NC2(c3ccc(Cl)cc3)C(=O)c3ccccc3C2=O)cc1
EC50 (Beta-galactosidase): > 40 µM (inactive) | IC50 [4]: > 100 µM (active) | IC50 [5]: 17.9 µM (active)

Sc1nnc(-c2cccnc2)n1/N=C/c1cccs1
IC50 [6]: > 100 µM (inactive) | IC50 [7]: 2.75 µM (active) | IC50 [8]: 58 µM (active)

CC1(C)Cc2c(ccc3ccccc23)/C(=C/C(=O)N2CCCCC2)N1
IC50 [9]: 11 µM (inactive) | AC50 (HEK293 [10]): 26.1 µM (active)

Cc1cc(NC(=O)c2cc(F)c(F)cc2Cl)no1
AC50 [11]: 24 µM (active)

COc1cccc(C2C3CN(C)CC=C3C(C#N)=C(N)C2(C#N)C#N)c1OC (centres undefined)
IC50 [9]: 2.74 µM (active) | EC50 [12]: 2.18 µM (inconclusive) | EC50 [13]: 8.49 µM (active)

Cn1c(/C=C/c2ccc(Br)cc2)c([N+](=O)[O-])c(=O)n(C)c1=O
EC50 (HEK293 [14]): 14.4 µM (active) | IC50 (HEK293 [15]): 4.31 µM (active) | CC50 [16]: 21.9 µM (active) | CC50 (Vero [17]): 16 µM (active) | IC50 (HEK293 [18]): 14.3 µM (active) | IC50 (HEK293 [19]): 4.87 µM (active) | IC50 (Vero [20]): 23.9 µM (active) | CC50 (Vero [21]): 12.1 µM (active)

CCOc1ccc(-n2cccc2C=O)cc1
AC50 [11]: 7.29 µM (active)
